Measured values as given in patent US20230346670A1, “Prebiotic Oral Care Compositions and Methods” (Colgate-Palmolive Company, priority 2020, published 2023).

Experiments:
Type in all cases: cell-based
[1] = system: A. actinomycetemcomitans virulence genes; experiment: Virulence gene expression in multi-species biofilm (SYBR RT-qPCR)
Protocol: (§1) Biofilms are grown vertically on Calcium Deficient Hydroxyapatite (CAD-HA) disks (Hitemco Medical, Old Bethpage, USA) using the Amsterdam Active Adhesion model. Biofilms are allowed to establish during 24 h (37° C., 170 rpm) under microaerophilic conditions (6% O2, 7% CO2, 7% H2, 80% N2). After this 24 h, disks are rinsed 3 times a day for 3 minutes (RT, 250 rpm), for 3 consecutive days, by transferring the lid containing the disks to a new 24-well plate containing 2 mL/well of the appropriate substrate solution. As a negative control, PBS (pH 5.7) without substrate supplementation is used.
(§2) The virulence of the substrate-treated multi-species biofilms are evaluated by analyzing the relative expression of 33 genes that are recognized as being related to some form of virulence and from 4 periodontal pathogens.
(§3) Expression of bacterial virulence genes is analyzed through SYBR RT-qPCR and normalized for bacterial housekeeping gene expression. […] These effects are illustrated in Tables 6a and 6b:
(§4) Note, for Tables 6a and 6b, that fold changes in virulence gene expression are determined relative to the control condition through the 2^^-ΔΔCt method and are shown as the geometric mean (C.I.) (n = 3) of the 2^^-ΔΔ ^Ct values. All substrates are dissolved in PBS at a concentration of 1 M (upper part) or 1%(w/v) (lower part). Values between 0 and 1 represent relative downregulation, values >1 represent relative upregulation. […] NADG: N-acetyl-D-glucosamine; C.I.: 95% confidence interval.

[2] = system: P. gingivalis virulence genes; experiment: as above; details: relative to control, 2^-ΔΔCt, n = 3
Protocol: as §1, §2, §3, §4

[3] = system: P. intermedia virulence genes; experiment: as above; details: relative to control = 1
Protocol: as §1, §2, §3
as §4, with “for Table 6d,” for “for Tables 6a and 6b, that”, “determined relatively” for “determined relative”, “the 2^^-ΔΔCt” for “the 2^^-ΔΔ ^Ct”

[4] = system: human oral keratinocytes (HOK-18A); experiment: Inflammatory mediator gene expression in keratinocytes exposed to substrate-treated biofilms (SYBR RT-qPCR); details: for fold change in IL-1β gene expression, geometric mean (C.I.) / fold change in IL-6 gene expression, geometric mean (C.I.) / fold change in IL-8 gene expression, geometric mean (C.I.) / fold change in MMP-8 gene expression, geometric mean (C.I.) / fold change in TNF-α gene expression, geometric mean (C.I.): relative to control, n = 3
Protocol: Cultures of immortalized human oral keratinocytes (HOK-18A) are grown. […] The IL-8 levels in the cellular supernatant are determined as well. RNA is converted to cDNA and relative expression of inflammatory mediator genes is determined as described above with respect to the cellular housekeeping gene β-actin.
In HOKs exposed to substrate-treated (substrate concentrations of […]) multi-species biofilms, there are mostly decreases in inflammatory mediator gene expression as measured via SYBR RT-qPCR, the results of which are detailed in Table 7:
Fold changes in inflammatory mediator gene expression from human oral keratinocytes (HOK-18A) exposed to substrate-treated multi-species biofilms are determined relatively to the control through the 2^^-ΔΔCt method and are shown as the geometric mean (C.I.) (n = 3) of the 2^^-ΔΔCt values. All substrates are dissolved in PBS at a concentration of 1 M (upper part) or 1%(w/v) (lower part). Values between 0 and 1 represent relative downregulation, values >1 represent relative upregulation.

[5] = lower part of Table 6a, substrate 1%(w/v), relative to control = 1
[6] = substrate 1 M, relative to control = 1, 2^-ΔΔCt, n = 3
[7] = lower part of Table 6d, head prints 1 M (lower part 1%(w/v))
[8] = upper part of Table 6d, substrate 1 M, n = 3
[9] = HOK-18A exposed to biofilms treated with substrate 1% (w/v)
[10] = HOK-18A exposed to biofilms treated with substrate 1 M

In the case of `OC[C@H]1O[C@@H](O[C@H]2[C@H](O)[C@@H](O)[C@@H](O)O[C@@H]2CO)[C@H](O)[C@@H](O)[C@H]1O` [D-lactose, α-D-lactose], the “fold change in aae expression, geometric mean (95% C.I.)” value [1, 5] was 1.36 (0.70-2.67) fold, the “fold change in apaH expression, geometric mean (95% C.I.)” value [1, 5] was 0.84 (0.29-2.49) fold and the “fold change in cdtB expression, geometric mean (95% C.I.)” value [1, 5] was 0.66 (0.21-2.03) fold. The “fold change in emaA expression, geometric mean (95% C.I.)” value [1, 5] was 0.34 (0.25-0.45)^∗ fold, the “fold change in flp expression, geometric mean (95% C.I.)” value [1, 5] was 0.81 (0.08-7.83) fold and the “fold change in ltxA expression, geometric mean (95% C.I.)” value [1, 5] was 0.04 (0.02-0.08)^∗ fold. The “fold change in omp29 expression, geometric mean (95% C.I.)” value [1, 5] was 0.81 (0.73-0.89) fold, the “fold change in omp100 expression, geometric mean (95% C.I.)” value [1, 5] was 0.34 (0.23-0.49)^∗ fold and the “fold change in orf859 expression, geometric mean (95% C.I.)” value [1, 5] was 0.97 (0.37-2.54) fold. The “fold change in pgA expression, geometric mean (95% C.I.)” value [1, 5] was 0.55 (0.41-0.74) fold, the “fold change in vapA expression, geometric mean (95% C.I.)” value [1, 5] was 0.90 (0.60-1.35) fold and the “fold change in vppA expression, geometric mean (95% C.I.)” value [1, 5] was 0.40 (0.14-1.15)^∗ fold. For the same compound, the “fold change in aae expression, geometric mean (95% C.I.)” value [1, 6] was 0.03 (0.01-0.22)^∗ fold, the “fold change in apaH expression, geometric mean (95% C.I.)” value [1, 6] was 0.04 (0.01-0.21)^∗ fold and the “fold change in cdtB expression, geometric mean (95% C.I.)” value [1, 6] was 0.02 (0.00-0.21)^∗ fold. The “fold change in emaA expression, geometric mean (95% C.I.)” value [1, 6] was 0.08 (0.06-0.11)^∗ fold, the “fold change in flp expression, geometric mean (95% C.I.)” value [1, 6] was 0.44 (0.10-1.94) fold and the “fold change in ltxA expression, geometric mean (95% C.I.)” value [1, 6] was 0.01 (0.00-0.08)^∗ fold. The “fold change in omp29 expression, geometric mean (95% C.I.)” value [1, 6] was 0.42 (0.33-0.52)^∗ fold, the “fold change in omp100 expression, geometric mean (95% C.I.)” value [1, 6] was 0.08 (0.04-0.15)^∗ fold and the “fold change in orf859 expression, geometric mean (95% C.I.)” value [1, 6] was 0.05 (0.00-0.79)^∗ fold. The “fold change in pgA expression, geometric mean (95% C.I.)” value [1, 6] was 4.30 (2.21-8.37)^∗ fold, the “fold change in vapA expression, geometric mean (95% C.I.)” value [1, 6] was 0.22 (0.13-0.36)^∗ fold and the “fold change in vppA expression, geometric mean (95% C.I.)” value [1, 6] was 0.17 (0.06-0.43)^∗ fold. The “fold change in pgA expression, geometric mean (95% C.I.)” value ([1]; substrate 1 M, relative to control = 1, 2^-ΔΔCt, n = 3, listed as α-D-lactose) was 4.3 fold, the “fold change in fimA expression, geometric mean (95% C.I.)” value ([2]; substrate 1 % (w/v)) was 1.48 (0.27-8.02) fold and the “fold change in kgp expression, geometric mean (95% C.I.)” value ([2]; substrate 1 % (w/v)) was 1.95 (0.45-8.59) fold. For the same compound, the “fold change in partC expression, geometric mean (95% C.I.)” value ([2]; substrate 1 % (w/v)) was 0.47 (0.07-3.04) fold, the “fold change in rgpA expression, geometric mean (95% C.I.)” value ([2]; substrate 1 % (w/v)) was 1.49 (0.70-3.20) fold and the “fold change in fimA expression, geometric mean (95% C.I.)” value ([2]; substrate 1 M) was 0.06 (0.00-1.08)^∗ fold. The “fold change in kgp expression, geometric mean (95% C.I.)” value ([2]; substrate 1 M) was “<LOD”, the “fold change in partC expression, geometric mean (95% C.I.)” value ([2]; substrate 1 M) was 0.03 (0.01-0.17)^∗ fold and the “fold change in rgpA expression, geometric mean (95% C.I.)” value ([2]; substrate 1 M) was 0.01 (0.00-4.60)^∗ fold. The “fold change in DnaJ expression, geometric mean (95% C.I.)” value [3, 7] was 0.29 (0.18-0.47)^∗ fold, the “fold change in DnaK expression, geometric mean (95% C.I.)” value [3, 7] was 1.16 (0.55-2.44) fold and the “fold change in ECF expression, geometric mean (95% C.I.)” value [3, 7] was 0.26 (0.12-0.58)^∗ fold. For the same compound, the “fold change in GroES expression, geometric mean (95% C.I.)” value [3, 7] was 0.91 (0.41-2.03) fold, the “fold change in HtpG expression, geometric mean (95% C.I.)” value [3, 7] was 0.40 (0.15-1.07)^∗ fold and the “fold change in KpsD expression, geometric mean (95% C.I.)” value [3, 7] was 0.72 (0.39-1.35) fold. For the same compound, the “fold change in adpc expression, geometric mean (95% C.I.)” value [3, 7] was 0.41 (0.30-0.55) fold, the “fold change in clpB expression, geometric mean (95% C.I.)” value [3, 7] was 0.85 (0.23-3.13) fold and the “fold change in inpA expression, geometric mean (95% C.I.)” value [3, 7] was 0.52 (0.41-0.66)^∗ fold. The “fold change in phg expression, geometric mean (95% C.I.)” value [3, 7] was 0.39 (0.19-0.77)^∗ fold, the “fold change in DnaJ expression, geometric mean (95% C.I.)” value [3, 8] was 0.25 (0.05-1.25)^∗ fold and the “fold change in DnaK expression, geometric mean (95% C.I.)” value [3, 8] was 0.34 (0.28-0.42)^∗ fold. The “fold change in ECF expression, geometric mean (95% C.I.)” value [3, 8] was 1.72 (0.56-5.25) fold, the “fold change in GroES expression, geometric mean (95% C.I.)” value [3, 8] was 0.29 (0.09-0.91)^∗ fold and the “fold change in HtpG expression, geometric mean (95% C.I.)” value [3, 8] was 0.19 (0.12-0.31)^∗ fold. For the same compound, the “fold change in KpsD expression, geometric mean (95% C.I.)” value [3, 8] was 0.62 (0.21-1.87) fold, the “fold change in adpc expression, geometric mean (95% C.I.)” value [3, 8] was 0.30 (0.23-0.39)^∗ fold and the “fold change in clpB expression, geometric mean (95% C.I.)” value [3, 8] was 0.38 (0.08-1.75)^∗ fold. For the same compound, the “fold change in inpA expression, geometric mean (95% C.I.)” value [3, 8] was 0.47 (0.27-0.82)^∗ fold, the “fold change in phg expression, geometric mean (95% C.I.)” value [3, 8] was 0.12 (0.08-0.18)^∗ fold and the “fold change in IL-1β gene expression, geometric mean (C.I.)” value [4, 9] was 0.89 (0.54-1.45) fold. For the same compound, the “fold change in IL-6 gene expression, geometric mean (C.I.)” value [4, 9] was 0.74 (0.56-0.97)^∗ fold, the “fold change in IL-8 gene expression, geometric mean (C.I.)” value [4, 9] was 1.13 (0.71-1.80) fold and the “fold change in MMP-8 gene expression, geometric mean (C.I.)” value [4, 9] was 0.70 (0.62-0.79) fold. The “fold change in TNF-α gene expression, geometric mean (C.I.)” value [4, 9] was 0.81 (0.50-1.33) fold, the “fold change in IL-1β gene expression, geometric mean (C.I.)” value [4, 10] was 0.5 (0.38-0.65)^∗ fold and the “fold change in IL-6 gene expression, geometric mean (C.I.)” value [4, 10] was 0.33 (0.12-0.88)^∗ fold. The “fold change in IL-8 gene expression, geometric mean (C.I.)” value [4, 10] was 0.03 (0.02-0.05)^∗ fold, the “fold change in MMP-8 gene expression, geometric mean (C.I.)” value [4, 10] was 0.78 (0.38-1.61) fold and the “fold change in TNF-α gene expression, geometric mean (C.I.)” value [4, 10] was 0.39 (0.23-0.66)^∗ fold. For the same compound, the “downregulation of IL-1β gene expression” value ([4]; substrate 1 M) was 2 fold, the “downregulation of IL-6 gene expression” value ([4]; substrate 1 M) was 3 fold and the “downregulation of TNF-α gene expression” value ([4]; substrate 1 M) was 2.5 fold.
